{"source": "patent US20090022803A1", "about": "“Oral Formulations For Delivery of Catecholic Butanes Including Ndga Compounds” (priority 2005, published 2009)", "assay_type": "physicochemical", "conditions": "for Dissolution After Heating: 90° C.", "description": "A 10 mL solution of M4N at a concentration of about 10 mg/mL in 40% BP-β-CD was made as follows. About 10 mL of the 40% HP-β-CD solution were added to a glass beaker containing a stir bar. The beaker was placed on a magnetic plate and the stir bar was set to stir at medium speed. About […] of M4N were slowly added to the 40% HP-β-CD in the center of the beaker with the aid of a spatula. The M4N/40% HP-β-CD mixture was stirred for 2 hr or until all M4N was uniformly suspended without any clumps being present. The M4N/40% HP-β-CD mixture was optionally heated at 80° C. for about 30 min. (or longer if a larger volume of solution was desired, for example, 1 hr at 80° C. for 100 mL of the M4N/HP-β-CD mixture), or longer as needed to ensure complete dissolution of M4N. […] The final M4N/40% HP-β-CD solution was stored at room temperature and was kept protected from light. This process may be scaled up or down to obtain the requisite volume or concentration of M4N. Formulations containing M4N in other cyclodextrin solutions may be similarly made, such as, for example, by substituting HP-β-CD in the process described above with other cyclodextrins. […]\nA 10 mL solution of M4N at a concentration of about 10 mg/mL in 50% HP-β-CD/0.5% HPMC was made as follows. About 10 mL of the 50% HP-β-CD/0.5% HPMC solution were added to a glass beaker containing a stir bar. The beaker was placed on a magnetic plate and the stir bar was set to stir at medium speed. About 100 mg of M4N were slowly added to the 50% HP-β-CD/0.5% HPMC in the center of the beaker with the aid of a spatula. The M4N/50% HP-β-CD/0.5% HPMC mixture was stirred for 24 hr or until all M4N was uniformly suspended without any clumps being present. The M4N/50% HP-β-CD/0.5% HPMC mixture was heated at about 90° C. for about 30 min. (or longer if a larger volume of solution was desired, for example, 1 hr at 90° C. for 500 mL of the M4N/50% HP-β-CD/0.5% HPMC mixture), or longer as needed to ensure complete dissolution of M4N. […] The final M4N/50% HP-β-CD/0.5% HPMC solution was stored at room temperature and was kept protected from light.\nA 10 mL solution of M4N at a concentration of about 20 mg/mL in 5% EC (w/v) (the “EC formulation”) was made as follows. About 10 mL of 5% EC formulation, made as described above, were added to a glass beaker containing a stir bar. The beaker was placed on a magnetic plate and the stir bar was set to stir at medium speed, and covered with a round Teflon® cover. About 200 mg of M4N were slowly added to the 5% EC formulation in the center of the beaker with the aid of a spatula to prevent M4N from sticking to the beaker wall. The M4N/EC mixture was stirred for 2 hr or until all M4N had dissolved or was uniformly suspended without any clumps being present. The M4N/EC mixture was heated at about 60° C. for about 30 min. (or longer if a larger volume of solution was desired, for example, 1 hr at 60° C. for 500 mL of the M4N/EC mixture), or longer as needed to ensure complete dissolution of M4N. […] The final M4N/EC solution was stored at room temperature and was kept protected from light.\nA 10 mL solution of M4N at a concentration of about 50 mg/mL in sesame oil was made as follows. About 10 mL of sesame oil were added to a glass beaker containing a stir bar. The beaker was placed on a magnetic plate and the stir bar was set to stir at medium speed. About 500 mg of M4N were slowly added to the sesame oil in the center of the beaker with the aid of a spatula to prevent M4N from sticking to the beaker wall. The M4N/sesame oil mixture was stirred for about 2 hr or until all M4N had dissolved or was uniformly suspended without any clump being present. The M4N/sesame oil mixture was heated at about 60° C. for about 30 min. (or longer if a larger volume of solution was desired, for example, 1 hr at 60° C. for 500 mL of the M4N/sesame oil mixture), or longer as need to ensure complete dissolution of M4N. […]", "key": {"[1]": {"conditions": "M4N 1 mg/mL in 40% HP-β-CD, 1% PVP (w/v)"}, "[2]": {"conditions": "M4N 1 mg/mL in 50% HP-β-CD, 0.5% HPMC"}, "[3]": {"conditions": "M4N 1 mg/mL in 50% HP-β-CD, 1.25% PVP (w/v)"}, "[4]": {"conditions": "M4N 3.13 mg/mL in 5% HP-β-CD, 12.5% PEG 300 (v/v)"}, "[5]": {"conditions": "M4N 4.17 mg/mL in 6.7% HP-β-CD, 16.7% PEG 300 (v/v)"}, "[6]": {"conditions": "M4N 6.25 mg/mL in 10% HP-β-CD, 25% PEG 300 (v/v)"}}, "note": "Like-named read-outs stand apart in the source and are kept apart here. For Dissolution After Cool Down in this document: key: N represents 'No'; Y represents 'Yes.'."}
{"smiles": "COc1ccc(C[C@@H](C)[C@@H](C)Cc2ccc(OC)c(OC)c2)cc1OC", "note": "[Formulation M4N, meso-1,4-bis(3,4-dimethoxyphenyl)-2,3-dimethylbutane]", "values": [{"measurement": "Dissolution After Rotation", "setting": "M4N 1 mg/mL in 1.50% β-CD", "value": "N"}, {"measurement": "Dissolution After Heating at X° C.", "setting": "M4N 1 mg/mL in 1.50% β-CD, 90°", "value": "N at 90°"}, {"measurement": "Dissolution After Rotation", "setting": "M4N 1 mg/mL in 2% MC (Low viscosity)", "value": "N"}, {"measurement": "Dissolution After Rotation", "setting": "M4N 1 mg/mL in 2.3% HPMC", "value": "N"}, {"measurement": "Dissolution After Heating", "setting": "M4N 1 mg/mL in 2.3% HPMC", "value": "N at 90 °C"}, {"measurement": "Dissolution After Rotation", "setting": "M4N 1 mg/mL in 5% EC in EtOH", "value": "Y"}, {"measurement": "Dissolution After Rotation", "setting": "M4N 1 mg/mL in 5% γ-CD", "value": "N"}, {"measurement": "Dissolution After Heating at X° C.", "setting": "M4N 1 mg/mL in 5% γ-CD, 90°", "value": "N at 90°"}, {"measurement": "Dissolution After Rotation", "setting": "M4N 1 mg/mL in 15% α-CD", "value": "N"}, {"measurement": "Dissolution After Heating at X° C.", "setting": "M4N 1 mg/mL in 15% α-CD, 90°", "value": "N at 90°"}, {"measurement": "Dissolution After Cool Down", "setting": "M4N 1 mg/mL in 20% HP-β-CD", "value": "Y"}, {"measurement": "Dissolution After Rotation", "setting": "M4N 1 mg/mL in 20% HP-β-CD", "value": "N"}, {"measurement": "Dissolution After Rotation", "setting": "M4N 1 mg/mL in 20% HP-β-CD in saline", "value": "N"}, {"measurement": "Dissolution After Heating at X° C.", "setting": "M4N 1 mg/mL in 20% HP-β-CD, 90°", "value": "Y at 90°"}, {"measurement": "Dissolution After Cool Down", "setting": "M4N 1 mg/mL in 30% HP-β-CD", "value": "Y"}, {"measurement": "Dissolution After Rotation", "setting": "M4N 1 mg/mL in 30% HP-β-CD", "value": "N"}, {"measurement": "Dissolution After Heating at X° C.", "setting": "M4N 1 mg/mL in 30% HP-β-CD, 90°", "value": "Y at 90°"}, {"measurement": "Dissolution After Cool Down", "setting": "M4N 1 mg/mL in 40% HP-β-CD", "value": "Y"}, {"measurement": "Dissolution After Rotation", "setting": "M4N 1 mg/mL in 40% HP-β-CD", "value": "N"}, {"measurement": "Dissolution After Heating at X° C.", "setting": "[1]", "value": "N"}, {"measurement": "Dissolution After Rotation", "setting": "[1]", "value": "N"}, {"measurement": "Dissolution After Rotation", "setting": "M4N 1 mg/mL in 40% HP-β-CD, 2.5% PG (v/v)", "value": "N"}, {"measurement": "Dissolution After Heating at X° C.", "setting": "M4N 1 mg/mL in 40% HP-β-CD, 2.5% PG (v/v), 80°", "value": "N at 80°"}, {"measurement": "Dissolution After Heating at X° C.", "setting": "M4N 1 mg/mL in 40% HP-β-CD, 80°", "value": "Y at 80°"}, {"measurement": "Dissolution After Cool Down", "setting": "M4N 1 mg/mL in 50% HP-β-CD", "value": "Y"}, {"measurement": "Dissolution After Rotation", "setting": "M4N 1 mg/mL in 50% HP-β-CD", "value": "N"}, {"measurement": "Dissolution After Rotation", "setting": "M4N 1 mg/mL in 50% HP-β-CD, 0.5% CMC", "value": "Suspension"}, {"measurement": "Dissolution After Cool-Down", "setting": "[2]", "value": "Y"}, {"measurement": "Dissolution After Rotation", "setting": "[2]", "value": "N"}, {"measurement": "Dissolution After Rotation", "setting": "M4N 1 mg/mL in 50% HP-β-CD, 0.5% HPMC, other experiment, no heat", "value": "Suspension"}, {"measurement": "Dissolution After Cool Down", "setting": "[3]", "value": "Y"}, {"measurement": "Dissolution After Rotation", "setting": "[3]", "value": "N"}, {"measurement": "Dissolution After Heating at X° C.", "setting": "M4N 1 mg/mL in 50% HP-β-CD, 1.25% PVP (w/v), 90°", "value": "Y at 90°"}, {"measurement": "Dissolution After Heating at X° C.", "setting": "M4N 1 mg/mL in 50% HP-β-CD, 90°", "value": "Y at 90°"}, {"measurement": "Dissolution After Cool-Down", "setting": "M4N 1 mg/mL in Corn Oil", "value": "Y"}, {"measurement": "Dissolution After Cool Down", "setting": "[4]", "value": "Y"}, {"measurement": "Dissolution After Rotation", "setting": "[4]", "value": "N"}, {"measurement": "Dissolution After Heating at X° C.", "setting": "M4N 3.13 mg/mL in 5% HP-β-CD, 12.5% PEG 300 (v/v), 60°", "value": "Y at 60°"}, {"measurement": "Dissolution After Cool Down", "setting": "[5]", "value": "Y"}, {"measurement": "Dissolution After Rotation", "setting": "[5]", "value": "N"}, {"measurement": "Dissolution After Heating at X° C.", "setting": "M4N 4.17 mg/mL in 6.7% HP-β-CD, 16.7% PEG 300 (v/v), 60°", "value": "Y at 60°"}, {"measurement": "Dissolution After Cool Down", "setting": "[6]", "value": "Y"}, {"measurement": "Dissolution After Rotation", "setting": "[6]", "value": "N"}, {"measurement": "Dissolution After Heating at X° C.", "setting": "M4N 6.25 mg/mL in 10% HP-β-CD, 25% PEG 300 (v/v), 60°", "value": "Y at 60°"}, {"measurement": "Dissolution After Rotation", "setting": "M4N 10 mg/mL in 1% HPMC", "value": "suspension"}, {"measurement": "Dissolution After Rotation", "setting": "M4N 10 mg/mL in 1.50% β-CD", "value": "N"}, {"measurement": "Dissolution After Heating at X° C.", "setting": "M4N 10 mg/mL in 1.50% β-CD, 90°", "value": "N at 90°"}, {"measurement": "Dissolution After Rotation", "setting": "M4N 10 mg/mL in 2.3% HPMC", "value": "N"}, {"measurement": "Dissolution After Heating", "setting": "M4N 10 mg/mL in 2.3% HPMC", "value": "N at 90 °C"}, {"measurement": "Dissolution After Cool-Down", "setting": "M4N 10 mg/mL in 5% EC in EtOH", "value": "Y"}, {"measurement": "Dissolution After Rotation", "setting": "M4N 10 mg/mL in 5% EC in EtOH", "value": "N"}, {"measurement": "Dissolution After Rotation", "setting": "M4N 10 mg/mL in 15% α-CD", "value": "N"}, {"measurement": "Dissolution After Heating at X° C.", "setting": "M4N 10 mg/mL in 15% α-CD, 90°", "value": "N at 90°"}, {"measurement": "Dissolution After Rotation", "setting": "M4N 10 mg/mL in 20% HP-β-CD", "value": "N"}, {"measurement": "Dissolution After Rotation", "setting": "M4N 10 mg/mL in 20% HP-β-CD in saline", "value": "N"}, {"measurement": "Dissolution After Heating at X° C.", "setting": "M4N 10 mg/mL in 20% HP-β-CD, 90°", "value": "N at 90°"}, {"measurement": "Dissolution After Cool Down", "setting": "M4N 10 mg/mL in 30% HP-β-CD", "value": "Y"}, {"measurement": "Dissolution After Rotation", "setting": "M4N 10 mg/mL in 30% HP-β-CD", "value": "N"}, {"measurement": "Dissolution After Heating at X° C.", "setting": "M4N 10 mg/mL in 30% HP-β-CD, 90°", "value": "Y at 90°"}]}
